Data reported in patent publication US20210230213A1, “ARAMCHOL SALTS” (GALMED RESEARCH AND DEVELOPMENT LTD., priority 2013, published 2021).
“And” between values parts separate entries of the source, which are not always exact repeats. Identical values can stand only once.

Experiments:
[1] = Accelerated stability of Aramchol N-methylglucamine at 40° C./75% RH (Example 5); assay type: physicochemical; details: for assay: calculated against free acid reference
Experimental: The following parameters were determined at t=0, t=1 week, t=2 weeks: appearance, LC-purity, LC-assay (the assay is calculated against the reference which is the free acid and therefore, the results are less than 100%), water content. The appearance and purity remained unchanged under the investigated conditions. […] The calculated assay remained relatively unchanged under the investigational conditions. Water content increased under the investigational conditions and the material seemed hygroscopic. The attraction of water in the solid state form was more prominent for material stored in an open container.

[2] = Dynamic Vapour Sorption (DVS); assay type: physicochemical
Experimental: The samples was weighed in a glass pan, typically 20-30 mg, and equilibrated at 0% relative humidity (RH). After the material had dried, the RH was increased with 10% per step for 1 hour per increment, ending at […].
The software used for data collection was DVSWin v3.01 No Video. Data analysis was performed using DVS Standard Analysis Suite v6.3.0 (Standard).
After completion of sorption cycle, the material was dried. XRPD was performed before and after DVS.

[3] = water
[4] = Bulk and tapped density; assay type: physicochemical
Description: Measurements of tapped and bulk densities are used to predict the flow properties and compressibility of powders. These two properties are important for manufacture of solid dosage formulations, such as tablets and capsules. Compounds with low values of tapped and bulk densities may be subject to difficulties in tablet compression, and therefore may require additional processing for improving flow properties. […] Therefore, to improve flow properties a wet granulation process is used prior to tablet compression.

[5] = Mathematical extrapolation of dog data to humans for meglumine salt
[6] = Pharmacokinetics of capsules in dogs, single dose and BID (Example 8); details: dogs
Experimental: Capsules containing 100 mg of Aramchol were dosed to dogs as either the free acid or the meglumine salt.
The complete data-set across all animals and time-points for each dose form (free acid or meglumine salt) were fit to single compartment PK models with first order rate of absorption Ka (h−1) and elimination parameterised by CL and V (rate of elimination=CL/V, h−1). For the meglumine salt group, the first dose data for M5 was removed.
Capsules containing 100 mg of Aramchol were dosed to dogs as either the free acid or the meglumine salt BID. […] A clinical study that investigated the plasma concentration of Aramchol after oral dosing of 300 mg BID at steady state was conducted in 16 healthy volunteers.

[7] = In vivo permeability / PK after intrajejunal administration in cannulated rats (Example 7); parameters: species or system male Wistar rats; details: rat
Experimental: An in vivo permeability study of Aramchol salts was performed in male Wistar rats cannulated in the jugular vein and in the jejunum. Intestinal cannulation was performed in order to bypass protonation of Aramchol salts in acidic gastric pH. Aramchol salts solubilized in PBS (30 mg/mL) were administered to rats intestine (jejunum) in a dose of 100 mg/kg (based on free acid), via a cannula inserted into the proximal side of the jejunum. A suspension of Aramchol free acid (in PBS, 30 mg/mL) was administered via the same route and was used as control. Blood samples were withdrawn via a cannula inserted into jugular vein at pre-determined time points (pre-dose, 1 hr, 2 hr, 4 hr, 8 hr, 12 hr, 24 hr post dose). Plasma concentrations of Aramchol (free acid) were measured using a liquid chromatography-tandem mass spectrometry (LC-MS-MS) method by Analyst Bioanalytical Laboratories, Israel. All PK parameters were calculated using non-compartmental analysis. Only those plasma concentrations equal to or greater than the lower limit of quantitation (LOQ) (48.66 ng/mL) were used in the analysis. Plasma concentrations <LOQ that occurred from pre-dose to the first concentration ≥LOQ were treated as 0. Actual sampling times were used for all pharmacokinetic analyses. The following PK parameters were calculated: maximum plasma concentration (Cmax), time to Cmax (Tmax), area under the plasma concentration-time curve from time of administration until the last plasma concentration (AUC0-4), AUC/dose, elimination half-life (t½). Cmax and Tmax were taken directly from the data. Area under the curve from zero to the final sample with a concentration ≥LOQ. AUC0-4 was calculated using the linear trapezoidal method.

[8] = Fill weight of size 00 HPMC capsule; assay type: physicochemical; details: hard HPMC capsule size 00, filled as is without tapping
Description: Aramchol (free acid), and the three salts were filled as are, into hard HPMC (Hypromellose; Capsule size 00 (CapsCanada, ON, Canada) without taping, fill weight is presented in table 9.

[9] = humans, prediction using % CV 24.3
[10] = capsule, Day 1, individual animals, listed as Aramchol meglumine salt
[11] = capsule, Day 1 single dose, Mean
[12] = capsule, Day 11, individual animals, listed as Aramchol meglumine salt
[13] = capsule, Day 11 final dose after BID dosing, Mean
[14] = 100 mg/kg, mean ± standard error

3β-arachidylamido-7α,12α-dihydroxy-5β-cholan-24-oic acid N-methylglucamine salt
purity ([1]; 40° C./75% RH, as a solution in a closed flask, T = 0): 99.5% | purity ([1]; 40° C./75% RH, as a solution in a closed flask, T = 1 (week)): 99.5% | purity ([1]; 40° C./75% RH, as a solution in a closed flask, T = 2 (weeks)): 99.5% | water ([1]; 40° C./75% RH, solid in a closed container, T = 0): 1.2% | water ([1]; 40° C./75% RH, solid in a closed container, T = 1 (week)): 1.6% | water ([1]; 40° C./75% RH, solid in a closed container, T = 2 (weeks)): 2.0% | water ([1]; 40° C./75% RH, solid in an open container, T = 0): 1.2% | water ([1]; 40° C./75% RH, solid in an open container, T = 1 (week)): 4.3% | water ([1]; 40° C./75% RH, solid in an open container, T = 2 (weeks)): 5.7% | purity ([1]; 40° C./75% RH, solid state form in a closed container, T = 0): 99.5% | purity ([1]; 40° C./75% RH, solid state form in a closed container, T = 1 (week)): 99.4% | purity ([1]; 40° C./75% RH, solid state form in a closed container, T = 2 (weeks)): 99.5% | purity ([1]; 40° C./75% RH, solid state form in an open container, T = 0): 99.5% | purity ([1]; 40° C./75% RH, solid state form in an open container, T = 1 (week)): 99.5% | purity ([1]; 40° C./75% RH, solid state form in an open container, T = 2 (weeks)): 99.5% | purity on exposure to 40° C./75% RH ([1]; 40° C./75% RH, up to 2 weeks): no change to purity values | assay ([1]; solid in a closed container, T = 0): 74.7% | assay ([1]; solid in a closed container, T = 1 (week)): 72.8% | assay ([1]; solid in a closed container, T = 2 (weeks)): 74.4% | assay ([1]; solid in an open container, T = 0): 74.7% | assay ([1]; solid in an open container, T = 1 (week)): 76.7% | assay ([1]; solid in an open container, T = 2 (weeks)): 71.9% | assay ([1]; solution in a closed flask, T = 0): 74.7% | assay ([1]; solution in a closed flask, T = 1 (week)): 75.3% | assay ([1]; solution in a closed flask, T = 2 (weeks)): 74.8% | total mass uptake (DVS) ([2]; Example 4 material, sorption to 95% RH, […]): 16% | Mass uptake (DVS) ([2]; RH raised from 0% in 10% steps to 95% RH, stepwise, reversible): 14.9% (stepwise; reversible) | Dissolved (50 in g in 1) at 50° C. ([3]; Aramchol free acid and base 1:1, 50° C.): Yes | salt remains in solution after cooling to 20° C. ([3]; cooled to 20° C.): no | Bulk density [4]: 0.57 g/mL | Tapped density [4]: 0.66 g/mL | AUCss [5]: 144,295 ng*h/mL | AUCss ([5]; embodiment, b22 and b98 say the value pertains to dogs): 144,295 ng*h/mL | maximum plasma exposure [5, 9]: 179.382 µg·h/mL | minimum plasma exposure [5, 9]: 109.208 µg·h/mL | higher plasma exposure than free acid at the same molar dose [6]: 26% | AUCss ([6]; 100 mg BID capsules, AUC 0-72 h from last administration on day 11, N = 3): 1,143,428 ng*h/mL | Cmax ([6]; capsule 100 mg Aramchol, Day 1 single dose, Mean): 4.88 µg/mL | Cmax ([6]; capsule, Day 1, individual animals (1M-3M free acid, 4M-6M meglumine salt), listed as Aramchol meglumine salt): 5.77 µg/mL and 1.72 µg/mL and 7.16 µg/mL | AUC0-12 [6, 10]: 34.8 µg·h/mL and 3.8 µg·h/mL and 53.2 µg·h/mL | AUCinf [6, 10]: 205 µg·h/mL and 66.9 µg·h/mL and 440 µg·h/mL | Half-life [6, 10]: 19.2 h and 23.1 h and 26.1 h | Tmax [6, 10]: 12 h and 24 h | AUC0-12 [6, 11]: 30.6 µg·h/mL | AUCinf [6, 11]: 237 µg·h/mL | Half-life [6, 11]: 22.8 h | Tmax [6, 11]: 20 h | AUC0-12 [6, 12]: 365 µg·h/mL and 302 µg·h/mL and 315 µg·h/mL | AUCinf [6, 12]: 1600 µg·h/mL and 1150 µg·h/mL and 1590 µg·h/mL | Cmax [6, 12]: 37.6 µg/mL and 38.8 µg/mL and 28.3 µg/mL | Half-life [6, 12]: 29.6 h and 28.9 h and 35.3 h | Tmax [6, 12]: 8 h and 4 h | AUC0-12 [6, 13]: 328 µg·h/mL | AUCinf [6, 13]: 1450 µg·h/mL | Cmax [6, 13]: 34.9 µg/mL | Half-life [6, 13]: 31.3 h | Tmax [6, 13]: 6.67 h | greater exposure using the salt (from model Cl) ([6]; compartmental modelling): 28% | AUCinf from day 11 onwards ([6]; final dose day 11): 1450 µg·h/mL | AUC0-12 D11 ([6]; final dose day 11, steady state): 328 µg·h/mL | AUCinf D1 ([6]; first dose day 1, all animals): 237 µg·h/mL | AUCinf D1 ([6]; first dose day 1, animal 5M (M5) excluded): 323 µg·h/mL | Cl ([6]; single compartment PK model): 320 | AUCinf higher than the free acid ([6]; single dose day 1, animal 5M excluded): 34% | increase in Cmax compared to Aramchol free acid [7]: 3.6 fold | Cmax ([7]; 100 mg/kg (based on free acid) in PBS 30 mg/mL, plasma Aramchol (free acid), mean ± standard error): 5012.1 ± 1879.9 (5) ng/mL | AUC(0-t) [7, 14]: 33625.2 ± 9567.7 (5) hr × ng/mL | AUC/dose [7, 14]: 331.7 ± 82.5 (5) hr × ng × kg/mL × mg | t1/2 [7, 14]: 5.2 ± 1.0 (5) hr | Tmax ([7]; 100 mg/kg, median): 4.0 (5) [2-4] hr | fill weight of one 00 size capsule [8]: 0.30 gram
